From patent publication US8722849B2, “Polypeptides” (Novo Nordisk A/S, priority 2011, dated 2014)
Converted amounts (≈) assume the structure as drawn. Like-named read-outs stand apart in the source and are kept apart here. Starred links: 1 amine or outer side, 2 acyl side, 3 side chain; linkers in the order of their positions; H or OH if unused. Positions of bridges follow the written chain, without caps; N, C: chain ends. Residues, ends and D or L forms follow the SMILES beside them. *: point of attachment. C20 diacid = O=C(O)CCCCCCCCCCCCCCCCCCC(=O)*; γGlu = O=C(O)[C@H](CCC(=O)[*:2])N[*:1]

Assays:
[1] = target: T1, human amylin receptor (amylin 3(a) receptor: human calcitonin receptor + RAMP-3) (Homo sapiens, UniProt O60896+P30988); assay: Assay (II)a functional CRE-luciferase assay, human amylin receptor; format: cell-based; settings: Table 2; BHK amylin 3(a)-receptor/CRE-luc cells
T1 construct: expressed in transfected cells; host or cells: BHK570
T1 sequence (P30988 25-474): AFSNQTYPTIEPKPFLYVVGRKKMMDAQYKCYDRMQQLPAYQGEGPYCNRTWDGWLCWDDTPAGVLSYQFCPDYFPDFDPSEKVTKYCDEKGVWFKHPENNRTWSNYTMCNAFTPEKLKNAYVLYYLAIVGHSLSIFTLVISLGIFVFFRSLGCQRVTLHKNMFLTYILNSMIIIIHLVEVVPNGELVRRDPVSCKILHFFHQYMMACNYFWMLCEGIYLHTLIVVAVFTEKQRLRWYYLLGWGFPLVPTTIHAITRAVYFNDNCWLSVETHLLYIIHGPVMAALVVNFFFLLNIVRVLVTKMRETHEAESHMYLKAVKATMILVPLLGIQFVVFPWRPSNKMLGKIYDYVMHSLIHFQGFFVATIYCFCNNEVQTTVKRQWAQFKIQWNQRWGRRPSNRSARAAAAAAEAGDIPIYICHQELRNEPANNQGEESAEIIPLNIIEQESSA
T1 sequence (O60896 24-148 partner): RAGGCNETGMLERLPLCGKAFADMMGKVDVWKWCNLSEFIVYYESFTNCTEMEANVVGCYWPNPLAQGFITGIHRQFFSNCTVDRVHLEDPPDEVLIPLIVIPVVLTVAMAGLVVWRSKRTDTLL

[2] = Assay (III) ThT fibrillation assay for physical stability; format: physicochemical
Method in brief: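 Freshly prepared formulations, pH-adjusted, with 1 μM ThT; four or eight replicates incubated at 37 °C under 960 rpm orbital shaking. Fluorescence (ex 444/em 485 nm) read every 20 min; […]. Peptide concentration measured by RP-HPLC before and after the run.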

[3] = Assay (IV) determination of solubility; format: physicochemical
Method in brief: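 Polypeptide in water (~500 nmol/ml) mixed 1:1 with 100 mM glycylglycine (pH 3.0–5.0) or bistrispropane (pH 6.0–8.0) buffers. Held 18 hours at room temperature, then centrifuged. Polypeptide remaining in solution quantified by HPLC.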

[4] = target: T2, human calcitonin receptor (Homo sapiens, UniProt P30988); assay: Assay (II)a functional CRE-luciferase assay, human calcitonin receptor; format: cell-based; settings: Table 7; human calcitonin (CTa) receptor
T2 construct: expressed in transfected cells; host or cells: BHK570
T2 sequence (P30988 25-474): T1 sequence (P30988 25-474)

[5] = bistrispropane buffer, pH 6, pH 6.0, read-out: Solubility pH 6.0
[6] = bistrispropane buffer, pH 6.5, pH 6.5, read-out: Solubility pH 6.5
[7] = bistrispropane buffer, pH 7, pH 7.0, 18 hours at room temperature, Table 3, read-out: Solubility pH 7.0
[8] = bistrispropane buffer, pH 7, pH 7.0, read-out: Solubility pH 7.0
[9] = bistrispropane buffer, pH 7.5, pH 7.5, read-out: Solubility pH 7.5
[10] = bistrispropane buffer, pH 8, pH 8.0, read-out: Solubility pH 8.0
[11] = glycylglycine buffer, pH 3, pH 3.0, read-out: Solubility pH 3.0
[12] = glycylglycine buffer, pH 4, pH 4.0, 18 hours at room temperature, Table 2, read-out: Solubility pH 4.0
[13] = glycylglycine buffer, pH 4, pH 4.0, read-out: Solubility pH 4.0
[14] = glycylglycine buffer, pH 5, pH 5.0, read-out: Solubility pH 5.0

Row | EC50 [1] [nM] | ThT pH 4.0 lag time (h) ([2]; ThT fibrillation assay) | solubility at 18 h [3, 5] [µM] | solubility at 18 h [3, 6] [µM] | solubility at 18 h [3, 7] [µM] | solubility at 18 h [3, 8] [µM] | solubility at 18 h [3, 9] [µM] | solubility at 18 h [3, 10] [µM] | solubility at 18 h [3, 11] [µM] | solubility at 18 h [3, 12] [µM] | solubility at 18 h [3, 13] [µM] | solubility at 18 h [3, 14] [µM] | EC50 [4] [nM] | ThT pH 4.0 lag time ([2]; Table 8) [h] | ThT pH 4.0 lag time ([2]; ThT fibrillation assay) [h] | solubility at 18 h ([3]; bistrispropane buffer, pH 7, pH 7.0, Table 8, read-out: Solubility pH 7.0) [µM] | SMILES
1 | 0.0495 | 3.1 | > 200 | 198 (≈ 879 µg/mL) | > 200 | > 200 | > 200 | > 200 | > 200 | > 200 | > 200 | > 200 | 0.0505 | – | – | – | CC[C@H](C)[C@H](NC(=O)[C@@H]1CCCN1C(=O)CNC(=O)[C@H](Cc1ccccc1)NC(=O)[C@H](CC(N)=O)NC(=O)[C@H](CC(N)=O)NC(=O)[C@H](CO)NC(=O)[C@H](CO)NC(=O)[C@H](Cc1c[nH]cn1)NC(=O)[C@@H](NC(=O)[C@H](CC(C)C)NC(=O)[C@H](Cc1ccccc1)NC(=O)[C@H](CCC(=O)O)NC(=O)[C@H](C)NC(=O)[C@H](CC(C)C)NC(=O)[C@H](CCCNC(=N)N)NC(=O)[C@H](CCC(N)=O)NC(=O)[C@@H](NC(=O)[C@H](C)NC(=O)[C@@H]1CSSC[C@H](NC(=O)[C@H](CCCNC(=N)N)NC(=O)CNC(=O)CC[C@H](NC(=O)CCCCCCCCCCCCCCCCCCC(=O)O)C(=O)O)C(=O)N[C@@H](CC(N)=O)C(=O)N[C@@H]([C@@H](C)O)C(=O)N[C@@H](C)C(=O)N[C@@H]([C@@H](C)O)C(=O)N1)[C@@H](C)O)C(C)C)C(=O)N[C@@H](CC(C)C)C(=O)N1CCC[C@H]1C(=O)N1CCC[C@H]1C(=O)N[C@H](C(=O)N[C@@H](CC(N)=O)C(=O)N[C@H](C(=O)NCC(=O)N[C@@H](CO)C(=O)N[C@@H](CC(N)=O)C(=O)N[C@H](C(=O)N1CCC[C@H]1C(N)=O)[C@@H](C)O)C(C)C)[C@@H](C)O [Example 102, N-alpha-[(S)-4-Carboxy-4-(19-carboxynonadecanoylamino)butyryl]-Gly-[Arg1,Glu14,Pro37]-pramlintide] ({C20 diacid-γGlu}-GRCNTATCATQRLAEFLVHSSNNFGPILPPTNVGSNTP-NH2; disulfide 3-8 (inferred); C-terminus assumed)
2 | 0.208 | 26 | > 200 | 152 (≈ 670 µg/mL) | > 200 | > 200 | > 200 | > 200 | > 200 | > 200 | > 200 | > 200 | 0.16 | 26 | 26 | > 200 | CC[C@H](C)[C@H](NC(=O)[C@@H]1CCCN1C(=O)CNC(=O)[C@H](Cc1ccccc1)NC(=O)[C@H](CC(N)=O)NC(=O)[C@H](CC(N)=O)NC(=O)[C@H](CO)NC(=O)[C@H](CO)NC(=O)[C@H](Cc1c[nH]cn1)NC(=O)[C@H](Cc1c[nH]cn1)NC(=O)[C@H](CC(C)C)NC(=O)[C@H](Cc1ccccc1)NC(=O)[C@H](CCC(=O)O)NC(=O)[C@H](C)NC(=O)[C@H](CC(C)C)NC(=O)[C@H](CCCNC(=N)N)NC(=O)[C@H](CCC(N)=O)NC(=O)[C@@H](NC(=O)[C@H](C)NC(=O)[C@@H]1CSSC[C@H](NC(=O)CNC(=O)CC[C@H](NC(=O)CCCCCCCCCCCCCCCCCCC(=O)O)C(=O)O)C(=O)N[C@@H](CC(N)=O)C(=O)N[C@@H]([C@@H](C)O)C(=O)N[C@@H](C)C(=O)N[C@@H]([C@@H](C)O)C(=O)N1)[C@@H](C)O)C(=O)N[C@@H](CC(C)C)C(=O)N1CCC[C@H]1C(=O)N1CCC[C@H]1C(=O)N[C@H](C(=O)N[C@@H](CC(N)=O)C(=O)N[C@H](C(=O)NCC(=O)N[C@@H](CO)C(=O)N[C@@H](Cc1c[nH]cn1)C(=O)N[C@H](C(=O)N[C@@H](Cc1ccc(O)cc1)C(N)=O)[C@@H](C)O)C(C)C)[C@@H](C)O [Example 105, N-alpha-[(S)-4-Carboxy-4-(19-carboxynonadecanoylamino)butyryl]-[Gly1,Glu14,His17,His35]-pramlintide] ({C20 diacid-γGlu}-GCNTATCATQRLAEFLHHSSNNFGPILPPTNVGSHTY-NH2; disulfide 2-7 (inferred); C-terminus assumed)
3 | 0.066 | >45 | 185 (≈ 834 µg/mL) | 23 (≈ 104 µg/mL) | – | 5 (≈ 22.5 µg/mL) | 33 (≈ 149 µg/mL) | 94 (≈ 424 µg/mL) | > 200 | > 200 | > 200 | > 200 | 0.11 | – | >45 | – | CC[C@H](C)[C@H](NC(=O)[C@@H]1CCCN1C(=O)CNC(=O)[C@H](Cc1ccccc1)NC(=O)[C@H](CC(N)=O)NC(=O)[C@H](CC(N)=O)NC(=O)[C@H](CO)NC(=O)[C@H](CO)NC(=O)[C@H](CCCNC(=N)N)NC(=O)[C@H](Cc1c[nH]cn1)NC(=O)[C@H](CC(C)C)NC(=O)[C@H](Cc1ccccc1)NC(=O)[C@H](CCC(=O)O)NC(=O)[C@H](C)NC(=O)[C@H](CC(C)C)NC(=O)[C@H](CCCNC(=N)N)NC(=O)[C@H](CCC(N)=O)NC(=O)[C@@H](NC(=O)[C@H](C)NC(=O)[C@@H]1CSSC[C@H](NC(=O)[C@H](Cc2c[nH]cn2)NC(=O)CC[C@H](NC(=O)CCCCCCCCCCCCCCCCCCC(=O)O)C(=O)O)C(=O)N[C@@H](CC(N)=O)C(=O)N[C@@H]([C@@H](C)O)C(=O)N[C@@H](C)C(=O)N[C@@H]([C@@H](C)O)C(=O)N1)[C@@H](C)O)C(=O)N[C@@H](CC(C)C)C(=O)N1CCC[C@H]1C(=O)N1CCC[C@H]1C(=O)N[C@H](C(=O)N[C@@H](CC(N)=O)C(=O)N[C@H](C(=O)NCC(=O)N[C@@H](CO)C(=O)N[C@@H](Cc1c[nH]cn1)C(=O)N[C@H](C(=O)N[C@@H](Cc1ccc(O)cc1)C(N)=O)[C@@H](C)O)C(C)C)[C@@H](C)O [Example 77, N-alpha-[(S)-4-Carboxy-4-(19-carboxynonadecanoylamino)butyryl]-[His1,Glu14,His17,Arg18,His35]-pramlintide] ({C20 diacid-γGlu}-HCNTATCATQRLAEFLHRSSNNFGPILPPTNVGSHTY-NH2; disulfide 2-7 (inferred); C-terminus assumed)
4 | 0.0965 | >45 | > 200 | 166 (≈ 789 µg/mL) | – | 15 (≈ 71.3 µg/mL) | 24 (≈ 114 µg/mL) | 60 (≈ 285 µg/mL) | > 200 | > 200 | > 200 | > 200 | 0.115 | – | >45 | – | CC[C@H](C)[C@H](NC(=O)[C@@H]1CCCN1C(=O)CNC(=O)[C@H](Cc1ccccc1)NC(=O)[C@H](CC(N)=O)NC(=O)[C@H](CC(N)=O)NC(=O)[C@H](CO)NC(=O)[C@H](CO)NC(=O)[C@H](Cc1c[nH]cn1)NC(=O)[C@H](Cc1c[nH]cn1)NC(=O)[C@H](CC(C)C)NC(=O)[C@H](Cc1ccccc1)NC(=O)[C@H](CCC(=O)O)NC(=O)[C@H](C)NC(=O)[C@H](CC(C)C)NC(=O)[C@H](CCCNC(=N)N)NC(=O)[C@H](CCC(N)=O)NC(=O)[C@@H](NC(=O)[C@H](C)NC(=O)[C@@H]1CSSC[C@H](NC(=O)[C@H](CCCCN)NC(=O)[C@H](Cc2c[nH]cn2)NC(=O)[C@H](Cc2c[nH]cn2)NC(=O)CC[C@H](NC(=O)CCCCCCCCCCCCCCCCCCC(=O)O)C(=O)O)C(=O)N[C@@H](CC(N)=O)C(=O)N[C@@H]([C@@H](C)O)C(=O)N[C@@H](C)C(=O)N[C@@H]([C@@H](C)O)C(=O)N1)[C@@H](C)O)C(=O)N[C@@H](CC(C)C)C(=O)N1CCC[C@H]1C(=O)N1CCC[C@H]1C(=O)N[C@H](C(=O)N[C@@H](CC(N)=O)C(=O)N[C@H](C(=O)NCC(=O)N[C@@H](CO)C(=O)N[C@@H](Cc1c[nH]cn1)C(=O)N[C@H](C(=O)N[C@@H](Cc1ccc(O)cc1)C(N)=O)[C@@H](C)O)C(C)C)[C@@H](C)O [Example 67, N-alpha-[(S)-4-Carboxy-4-(19-carboxynonadecanoylamino)butyryl]-His-His-[Glu14,His17,His35]-pramlintide] ({C20 diacid-γGlu}-HHKCNTATCATQRLAEFLHHSSNNFGPILPPTNVGSHTY-NH2; disulfide 4-9 (inferred); C-terminus assumed)
